The values that follow come from US20240324627A1, “USE OF A FEED ADDITIVE IN LOW ENERGY FEED FOR PIGS” (Alzchem Trostberg GmbH, priority 2021, published 2024).

The subject of one test is pigs. The conditions noted are these: Weber et al. 2017, cited from earlier work.
The subject of the next test is fattening pigs. As to the kind of experiment: 39-day feeding experiment in fattening pigs with low energy feed. The class given is in vivo. An excerpt:
In a 39-day feeding experiment, three different feed concepts were fed to fattening pigs with an initial weight of ˜65 kg. For each feeding concept, 80 pigs in 16 pens (5 animals per pen) were examined. The pens were exclusively occupied by animals of the same gender, i.e. females or non-castrated boars, in a 1:1 gender ratio. The three different feed groups were optimized for the content of metabolic energy (ME) and the other raw nutrients based on the supply recommendations of the NRC (National Research Council of the National Academies, 2012: Nutrient requirements of Swine/Committee on Nutrient Requirements of Swine, Board on Agriculture and Natural Resources, Division on Earth and Life Studies.-11th rev. ed. p. cm.). A positive control group with 13.0 MJ ME covering the energy requirements was compared with a negative control group with 12.8 MJ ME reduced by 0.2 MJ. In a guanidinoacetic acid group supplemented with 600 g/t, an energy content of 12.7 MJ ME was adjusted. The fattening phase lasted 39 days. On day 40, the animals that had already reached the slaughter weight of ˜108 kg were slaughtered. For this reason, data was recorded on this day. The rations were based on wheat, wheat semolina bran, rapeseed extraction meal and soy extraction meal. Animal fat was also added in relevant amounts. The diets were isonitrogenous, i.e. the supply of crude protein and digestible amino acids was identical in all three treatment groups. [table] Feed conversion is the amount of feed consumed that leads to a weight gain of the animal of one kilogram. Energy utilization is the energy intake per kilogram of weight gain.

The mark [1] stands for this setting: 600 g/t (0.06%) in 12.7 MJ ME/kg feed.

SMILES strings stand for the structures.

For the molecule `N=C(N)NCC(=O)O` [guanidinoacetic acid, Guanidinoacetic acid], the Feed uptake result in the test on pigs (addition to high energy feed) is on record as “slightly lower”. For the same molecule, in the test on pigs (common feed), the “Daily increase (weight gain)” value is recorded as “only a slight daily increase at the threshold of significance” and the Feed conversion result was “slight improvement”. In the test on fattening pigs (setting [1]), the “Daily feed intake, day 1-39” value amounted to 2223 g; the “Daily weight gain, day 1-39” value is on record as 828 g; the “Energy utilization, day 1-39” value was 34.2 MJ ME/kg gain; the “Feed conversion, day 1-39” value is given as 2.69 kg feed/kg gain. Further, in the test with fattening pigs (setting [1]), the “Live weight, day 39” value worked out at 96.2 kg. For the same molecule, in the test with fattening pigs (600 g/t in 12.7 MJ ME/kg feed), the Average slaughter weight is given as 107.3 kg and the “Daily weight gains in the fattening phase” value was “approximately 830 g/d”. In the test with fattening pigs (addition of 600 g/t, daily feed intake at level of positive control), this molecule displayed an Energy deficit compensated of 0.2 MJ ME. Besides, the “Improvement of feed conversion ratio compared to the negative control” value in the test with fattening pigs (fattening phase, vs 12.8 MJ ME negative control) is reported as 23 points. The “Improvement of feed conversion ratio compared to the positive control” value with fattening pigs (fattening phase, vs 13.0 MJ ME positive control) was determined as 6 points. In addition, the “Less energy required per kg gain vs negative control” value in the test on fattening pigs (fattening phase, vs negative control) is 4.3 MJ ME. Also, the “Less energy required per kg gain vs positive control” value in the test on fattening pigs (fattening phase, vs positive control) is listed as 2.1 MJ ME. For the same molecule, the “Average number of fattening days (from the start of the fattening phase)” value with fattening pigs (until slaughter, 600 g/t in 12.7 MJ ME/kg feed) is given as 52. In the test with fattening pigs (vs positive control), the Energy utilization improvement entry was “approximately 5.8%” and the Feed conversion improvement entry is on record as “approximately 2.2%”.
